Patent US6352976B1, “Selective inhibitors of MMP-12” (Aventis Pharmaceuticals Inc., priority 1998, dated 2002)
pKi: −log10 of the molar value. Structures can show the parent of a compound that is named as a salt.

Columns and labels:
[1] = target: T1, MMP-1 (interstitial collagenase) (Homo sapiens, UniProt P03956); experiment: Determination of inhibition constant (Ki) for MMP-1, fluorogenic substrate; type: biochemical; settings: pH 7.6
T1 construct: The active MMP-1 was obtained by treatment of proMMP-1 with trypsin; endogenous in cells; host or cells: human rheumatoid synovial fibroblasts stimulated with macrophage-conditioned medium; secreted proenzyme purified from culture medium
T1 sequence (P03956 100-469): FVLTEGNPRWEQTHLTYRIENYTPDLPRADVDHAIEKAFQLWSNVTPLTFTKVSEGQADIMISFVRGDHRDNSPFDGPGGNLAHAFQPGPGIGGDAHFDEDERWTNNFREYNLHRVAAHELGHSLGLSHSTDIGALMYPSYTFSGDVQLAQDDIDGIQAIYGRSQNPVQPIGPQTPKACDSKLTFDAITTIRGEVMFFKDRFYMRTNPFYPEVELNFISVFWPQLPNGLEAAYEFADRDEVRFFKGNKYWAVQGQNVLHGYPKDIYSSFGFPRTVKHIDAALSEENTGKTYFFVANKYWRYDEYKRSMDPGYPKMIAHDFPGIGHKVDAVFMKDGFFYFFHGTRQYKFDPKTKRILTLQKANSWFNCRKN
Method: ProMMP-1 (EC3.4.24.7; interstitial collagenase) was purified from culture medium of human rheumatoid synovial fibroblasts stimulated with macrophage-conditioned medium according to Okada, Y. et al., J. Biol. Chem. 261, 14245-14255 (1986). The active MMP-1 was obtained by treatment of proMMP-1 with trypsin (5 μg/mL) at 37° C. for 30 minutes, followed by addition of soybean trypsin inhibitor (50 μg/mL).
The activated MMP-1 is assayed using a fluorogenic substrate, Mca-Pro-Leu-Gly-Leu-Dpa-Ala-Arg-NH2, Knight, C. G. et al., FEBS Lett. 296, 263-266 (1992), at 37° C. in 2.0 mL of assay buffer containing 50 mM Tris, pH 7.6, 0.2 M sodium chloride, 50 mM calcium chloride, and 0.02% Brij-35. The increase in fluorescence due to cleavage of Gly-Leu peptide bond by MMP-3 was monitored with Perkin-Elmer LS50B Fluorimeter (λex 328 nm, λem 393 nm, excitation slit 2.5, emission slit 10). Substrate and inhibitor stock solutions were made in DMF. For determination of Ki values for MMP-1 inhibitors, a series of intermediate inhibitor solutions were prepared in DMF and 1 or 2 μL of the diluted inhibitor solution was mixed with 1 μL of 2 mM substrate solution in DMF in a quartz cuvette containing 2 mL of assay buffer. The enzyme (10 μL of 0.2 μM […] dilution in assay buffer) was added at the last to start the reaction. For routine measurement of a Ki value for a reversible, competitive inhibitor, the initial rates in the presence of at least four inhibitor concentrations (two concentrations above Ki and two concentrations below Ki) were measured using [S]=1 μM (<<Km) and [MMP-1]=0.8 nM. Under these conditions, the measured Ki, app is close to true Ki.
(§1) The Ki for a competitive inhibitor is calculated using: v0/vi=(1+[I]/Ki, app) and Ki=Ki, app/(1+[S]/Km), where v0 is the initial rate in the absence of inhibitor, vi is the initial rate in the presence of inhibitor at the concentration of [I], [S] is the substrate concentration, and Km is the Michaelis constant. If slow binding is observed (i.e. if the approach to the binding equilibrium is slow), the final steady-state rate rather than the initial rate is taken as vi.

[2] = target: T2, MMP-12 (macrophage metalloelastase) (Homo sapiens, UniProt P39900); experiment: Determination of the inhibition constant (Ki) for MMP-12, fluorogenic substrate; type: biochemical; settings: pH 7.6
T2 construct: made in house
Method: MMP-12 (EC3.4.24.65) was cloned, expressed and purified according to Shapiro, S. D. et al., J Biol. Chem. 268, 23824-23829 (1993). […] Aliquots of MMP-12 were stored at −70° C.
The potency of inhibitors of MMP-12 was measured using either quartz cuvettes or microtiter plates. The activity of MMP-12 was measured using a fluorogenic substrate, Mca-Pro-Leu-Gly-Leu-Dpa-Ala-Arg-NH2 SEQ ID NO1, Knight, C. G. et al., FEBS Lett. 296,263-266 (1992), at 25° C. in an assay buffer containing 50 mM Tris, pH 7.6, 0.2 M sodium chloride, 50 mM calcium chloride, and 0.02% Brij-35. The increase in fluorescence due to cleavage of Gly-Leu peptide bond by MMP-12 was monitored with a Perkin-Elmer LS50B Fluorimeter (λex 328 nm, λem 393 nm, excitation slit 2.5, emission slit 10) for the cuvette assay and with a Molecular Devices Fmax fluorescence plate reader (λex 320 nm, λem 405 nm) for the microtiter plate assay. Substrate and inhibitor stock solutions were made in N,N-dimethylformamide (DMF) and 0.1% HCl-DMF, respectively.
Ki values were determined using the cuvette method by preparing a series of intermediate inhibitors solutions in 0.1% HCl-DMF and mixing the inhibitor with substrate (final concentration 2 μM) in a quartz cuvette containing 2 ml of assay buffer. MMP-12 was added to start the reaction at a concentration of 2 nM and progress curves were generated. For routine measurement of a Ki value for a reversible competitive inhibitor, the initial rates in the presence of at least four inhibitor concentrations (two concentrations above and two concentrations below the Ki) were measured [S]=2 μM (<<Km) and [MMP-12]=2 nM. Under these conditions, the measured Ki,app is close to the true Ki.
Ki values were determined using the microtiter plate method in a manner similar to that described for the cuvette method with some modifications. Four different inhibitor concentrations (50 μl in assay buffer) of each compound were added to separate wells of a microtiter plate and substrate was added (100 μl) to get a final concentration of […]. MMP-12 was added to a final concentration of 2 nM (50 μl) to start the reaction. Cleavage of substrate was recorded every 30 seconds for 30 minutes and progress curves were generated.
as §1, with “inhibitor was” for “inhibitor is”, “using: V0/Vi=(1+[I]/Ki,app)” for “using: v0/vi=(1+[I]/Ki, app)”, “and Ki=Ki,app/(1+[S]/Km),” for “and Ki=Ki, app/(1+[S]/Km),”, “where V0” for “where v0”, “inhibitor, Vi” for “inhibitor, vi”, “as Vi.” for “as vi.”

[3] = Table 1, Mca-Pro-Leu-Gly-Leu-Dpa-Ala-Arg-NH2, 37° C.
[4] = Table 1, Mca-Pro-Leu-Gly-Leu-Dpa-Ala-Arg-NH2, 25° C.

T2 sequence (P39900 106-263 limits assumed): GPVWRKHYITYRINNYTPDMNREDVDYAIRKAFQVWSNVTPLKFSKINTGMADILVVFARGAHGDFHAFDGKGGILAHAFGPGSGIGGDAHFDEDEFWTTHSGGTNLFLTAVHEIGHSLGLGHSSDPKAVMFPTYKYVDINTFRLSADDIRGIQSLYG

Row | SMILES | pKi [1, 3] | pKi [2, 4] | pKi ([1]; Table 2 (comparative), method of Example A, 37° C.) | pKi ([2]; Table 2 (comparative), method of Example D, 25° C.)
1 | CC(C)C[C@H](NC(=O)[C@@H](S)C(C)C)C(=O)N[C@@H](Cc1ccccc1)C(=O)O [Example 3, (S)-2-Mercapto-3-methylbutyroyl-(L)-leucyl-(L)-phenylalanine] | 6.29 | 7.85 | – | –
2 | CSCC[C@H](NC(=O)[C@@H](S)C(C)C)C(=O)N[C@@H](Cc1ccccc1)C(=O)O [Example 4, (S)-2-Mercapto-3-methylbutyroyl-(L)-methionyl-(L)-phenylalanine] | 6.82 | 7.85 | – | –
3 | CC(C)[C@H](S)C(=O)N[C@@H](CCCCN)C(=O)N[C@@H](Cc1ccccc1)C(=O)O [Example 5, (S)-2-Mercapto-3-methylbutyroyl-(L)-lysyl-(L)-phenylalanine trifluoroacetic acid salt] | 5.41 | 6.82 | – | –
4 | CNC(=O)[C@H](Cc1ccccc1)NC(=O)[C@H](CCc1ccccc1)NC(=O)C(S)C(C)C (stereo partly drawn) [Example 7, (S)-2-Mercapto-3-methylbutyroyl-(L)-homo-phenylalanyl-(L)-phenylalanine N-methyl amide, reference compound] | – | – | 6.33 | 9.22
